Source: patent publication US5990151A, “Optically active substituted phenylalkylamine derivatives” (Taisho Pharmaceutical Co., Ltd., priority 1995, dated 1999)
Where a name gives a salt, the structure may show the parent alone.

Legend:
[1] = target: T1, sigma 1 receptor (Cavia porcellus, UniProt Q60492); test: Receptor binding experiment, sigma 1, [3H](+)-pentazocine, membrane of total brains of guinea pigs; design: species or system Hartley guinea pigs; conditions: [3H](+)-pentazocine (2 nM), 25° C., 120 minutes, 50 mM Tris-HCl pH 7.4; non-specific: 10 μM haloperidol; read-out: Sigma 1 (IC50, concentration of the test drug which inhibits individual binding by 50%)
T1 construct: A membrane specimen prepared from the total brains of guinea pigs; from tissue; host or cells: total brains of Hartley guinea pigs (membrane specimen)
Method: As experimental animals, Hartley guinea pigs were used. […] 121 (1994) using [^3 H] (+)-pentazocine (sigma 1) or [^3 H]1,3-di-o-tolylguanidine (DTG) (sigma 2) as a [^3 H]-labelled ligand.
A membrane specimen prepared from the total brains of guinea pigs, a [^3 H] ligand and a test drug were reacted in 50 mM Tris-HCl buffer (pH 7.4). For examining sigma 1, [^3 H](+)-pentazocine (2 nM) as a [^3 H] ligand was reacted at 25° C. for 120 minutes. For examining sigma 2, [^3 H] DTG (1 nM) as a [^3 H] ligand was reacted in the presence of 10^-7 M (+)-pentazocine at 25° C. for 90 minutes. After the completion of the reaction, the reaction solution was vacuum filtered through a glass filter (GF/B), and the radioactivity of the filter was determined with a liquid scintillation spectrometer.
The binding which occurred in the reaction in the presence 10 μM haloperidol was regarded as non-specific binding, and the difference obtained by subtracting non-specific binding from the total binding was regarded as specific binding. An inhibition curve was obtained by reacting a [^3 H] ligand at a specific concentration with a test drug at varied concentrations under the conditions described above. From this inhibition curve, the concentration of the test drug which inhibits individual binding by 50% (IC50) is obtained.

[2] = test system: sigma 1 receptor; conditions: cited from earlier work; for affinity for sigma 1 receptor: (agonist), Trends in Pharmacological Sciences, Vol. 13, pp. 85-86
[3] = test system: humans; conditions: cited from earlier work

T1 sequence (Q60492 whole entry): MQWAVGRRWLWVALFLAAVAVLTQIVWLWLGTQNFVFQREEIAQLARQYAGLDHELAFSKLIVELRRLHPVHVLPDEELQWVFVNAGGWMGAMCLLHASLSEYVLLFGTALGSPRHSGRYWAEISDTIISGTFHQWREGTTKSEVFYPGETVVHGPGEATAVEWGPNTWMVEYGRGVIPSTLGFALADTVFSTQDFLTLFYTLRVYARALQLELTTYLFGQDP

| Compound | IC50 [1] | specificity to and affinity for sigma 1 receptor ([2]; sigma antagonist, background art) | affinity for sigma 1 receptor [2] | develop psychotic symptoms in humans [3] |
| --- | --- | --- | --- | --- |
| CCCNC(CCC(C)C)Cc1ccc(OC)c(OCCc2ccccc2)c1 (single isomer, unassigned; (-)) [A, (-)-N-propyl-1-(3-methylbutyl)-2-[4-methoxy-3-(2-phenylethoxy)phenyl]ethylamine hydrochloride] | 0.46 nM | – | – | – |
| CCCCC(Cc1ccc(OC)c(OCCc2ccccc2)c1)NCCC (single isomer, unassigned; (-)) [B, (-)-N-propyl-1-butyl-2-[4-methoxy-3-(2-phenylethoxy)-phenyl]ethylamine hydrochloride] | 0.73 nM | – | – | – |
| C[C@@H]1CN(CCCn2c3ccccc3c3ccccc32)C[C@H](C)N1 [Rimcazole] | – | not sufficient | – | – |
| C=CCN1CCC2(C)c3cc(O)ccc3CC1C2C (stereo not shown) [SKF10047, N-arylnormethazocine] | – | – | high affinity | develop psychotic symptoms in humans |
| CC(C)=CCN1CCC2(C)c3cc(O)ccc3CC1C2C (stereo not shown) [pentazocine] | – | – | high affinity | develop psychotic symptoms in humans |
